Source: PMC3021963 (ChemMedChem, 2010)

Columns and labels:
Assay type in all cases: biochemical
MbtI [1] = target: T1, MbtI (Mycobacterium tuberculosis, UniProt P9WFX1); test: HPLC end-point assay of MbtI; conditions: for HPLC Assay Hill: Table 1, Hill slope of concentration-response plot
MbtI [2] = target: T1, MbtI
MbtI [3] = target: T1, MbtI; test: continuous fluorescence assay of MbtI; conditions: for Fluorescence Assay Hill: Table 1, Hill slope of concentration-response plot
[4] = Table 3, class III benzimidazole-2-thiones
[5] = IC50, Table 2, class II diarylsulfones
[6] = Table 2, class II diarylsulfones
[7] = Table 3, class III benzimidazole-2-thiones, synthetically prepared compounds

T1 sequence (P9WFX1 whole entry, looked up): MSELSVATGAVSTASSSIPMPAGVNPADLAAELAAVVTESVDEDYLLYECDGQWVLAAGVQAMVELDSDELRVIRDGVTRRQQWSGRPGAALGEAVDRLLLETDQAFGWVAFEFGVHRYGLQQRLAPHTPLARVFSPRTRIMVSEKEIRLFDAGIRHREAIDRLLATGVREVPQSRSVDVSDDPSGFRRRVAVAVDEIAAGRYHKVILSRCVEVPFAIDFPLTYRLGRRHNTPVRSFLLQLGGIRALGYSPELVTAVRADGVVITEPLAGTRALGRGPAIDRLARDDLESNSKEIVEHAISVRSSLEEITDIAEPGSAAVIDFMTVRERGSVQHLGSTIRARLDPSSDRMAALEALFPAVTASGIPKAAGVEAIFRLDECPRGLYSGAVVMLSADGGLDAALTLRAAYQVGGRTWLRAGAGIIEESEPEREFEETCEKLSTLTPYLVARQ

CC(=O)n1c(=S)[nH]c2ccccc21 [Compound 4, 1-Acetylbenzimidazole-2-thione]
IC50 (MbtI [1]): 5.16 ± 0.49 µM
HPLC Assay Hill (MbtI [1]): 1.23
Ki (MbtI [2]): 9.7 µM
α value (MbtI [2]; noncompetitive inhibition model): 1
mode of inhibition (MbtI [2]; with respect to chorismate): noncompetitive inhibition
Fluorescence Assay Hill (MbtI [3]): 1.71
Hill Slope (MbtI [3]; [4]): 1.00

CC(=O)n1cc[nH]c1=S [Compound 47, 1-Acetylimidazole-2-thione]
MbtI inhibition (in words) (MbtI [3]): abolished all activity

CC(=O)NS(=O)(=O)c1cccc(S(=O)(=O)c2ccc(Cl)c(Cl)c2)c1 [Compound 32, N-[3-(3,4-Dichlorophenylsulfonyl)phenylsulfonyl]acetamide]
MbtI inhibition (in words) (MbtI [3]): completely inactive
IC50 (MbtI [3]; [5]): > 200 µM

NS(=O)(=O)c1cccc(S(=O)(=O)c2ccc(Cl)cc2)c1 [Compound 26, 3-(4-Chlorophenylsulfonyl)benzenesulfonamide]
MbtI inhibition (in words) (MbtI [3]): complete loss of activity
IC50 (MbtI [3]; [5]): > 200 µM

CC(=O)n1cnc2ccccc21 [Compound 44, 1-Acetylbenzimidazole]
MbtI inhibition (in words) (MbtI [3]): completely inactive

Nc1ccc(S(=O)(=O)c2ccc(N)cc2)cc1 [Compound 33, 4,4′-diaminodiphenylsulfone, reference compound]
IC50 (MbtI [3]; [5]): 118 ± 19 µM

O=S(=O)(NCc1ccccc1)c1cccc(S(=O)(=O)c2ccc(Cl)c(Cl)c2)c1 [Compound 30, N-Benzyl-3-(3,4-dichlorophenylsulfonyl)benzenesulfonamide]
IC50 (MbtI [3]; [5]): > 200 µM

O=S(=O)(c1cccc(S(=O)(=O)N2CCOCC2)c1)c1ccc(Cl)c(Cl)c1 [Compound 31, N-[3-(3,4-Dichlorophenylsulfonyl)phenylsulfonyl]morpholine]
IC50 (MbtI [3]; [6]): > 200 µM

CC(=O)n1c(=S)[nH]c2cc(C)ccc21 [Compound 41, 1-Acetyl-5/6-methylbenzimidazole-2-thione]
change in potency relative to parent compound 4 (MbtI [3]): no impact on potency was observed
Hill Slope (MbtI [3]; [4]): 1.20
IC50 (MbtI [3]; [7]): 7.6 ± 0.4 µM

Cn1c(=S)[nH]c2ccccc21 [Compound 40, N-methylbenzimidazole-2-thione]
change in potency relative to parent compound 4 (MbtI [3]): six- to nine-fold decreases in potency
Hill Slope (MbtI [3]; [4]): 1.20

CC(=O)n1c(=S)oc2ccccc21 [Compound 42, 1-Acetylbenzoxazole-2-thione]
change in potency relative to parent compound 4 (MbtI [3]): about twofold less potent
Hill Slope (MbtI [3]; [4]): 1.10
IC50 (MbtI [3]; [7]): 21.8 ± 1.4 µM

NS(=O)(=O)c1cccc(S(=O)(=O)c2ccccc2)c1 [Compound 27, 3-(Phenylsulfonyl)benzenesulfonamide]
MbtI inhibition (in words) (MbtI [3]): complete loss of activity
IC50 (MbtI [3]; [5]): > 200 µM

CNS(=O)(=O)c1cccc(S(=O)(=O)c2ccc(Cl)c(Cl)c2)c1 [Compound 29, 3-(3,4-Dichlorophenylsulfonyl)-N-methylbenzenesulfonamide]
IC50 (MbtI [3]; [5]): > 200 µM

CSc1nc2ccccc2[nH]1 [Compound 46, 2-thiomethylbenzimidazole]
MbtI inhibition (in words) (MbtI [3]): completely inactive
IC50 (MbtI [3]; [7]): > 200 µM

CC(=O)n1c(=O)[nH]c2ccccc21 [Compound 45, 1-Acetylbenzimidazole-2-one]
MbtI inhibition (in words) (MbtI [3]): completely inactive

S=c1[nH]c2ccccc2[nH]1 [Compound 34, benzimidazole-2-thione]
change in potency relative to parent compound 4 (MbtI [3]): six- to nine-fold decreases in potency
Hill Slope (MbtI [3]; [4]): 0.90

CC(=O)N1C(=O)Cc2ccccc21 [Compound 43, 1-Acetyl-2-oxindole]
MbtI inhibition (in words) (MbtI [3]): completely inactive

NS(=O)(=O)c1cccc(S(=O)(=O)c2ccc(Cl)c(Cl)c2)c1 [Compound 8, 3-(3,4-Dichlorophenylsulfonyl)benzenesulfonamide]
IC50 (MbtI [1]): 49.2 ± 11.6 µM
HPLC Assay Hill (MbtI [1]): 0.7
IC50 (MbtI [3]; [5]): 35 µM
Fluorescence Assay Hill (MbtI [3]): 0.85
Hill Slope (MbtI [3]; [6]): 0.85

CNS(=O)(=O)c1cccc(S(=O)(=O)c2ccccc2)c1 [Compound 28, N-Methyl-3-(phenylsulfonyl)benzenesulfonamide]
IC50 (MbtI [3]; [5]): > 200 µM
